Data set [1] concerns isolated porcine iris-ciliary bodies. The data set is classed as cell-based. The note with it: for effect on NaHS-induced inhibition of evoked [3H]NE release: modifier 1 mM, NaHS 1 μM.
The next data set has as its system isolated porcine iris. The data set is described as follows: Relaxation of carbachol-induced tone in isolated porcine iris muscle strips. In kind it is cell-based.
For data set [2], the system named is normotensive, conscious albino rabbits. Put plainly: Intraocular pressure after topical application in normotensive, conscious albino rabbits (pneumatonometer). An excerpt:
A 1% dose of NaHS was applied topically to one eye and the saline vehicle to the other eye.
The effect of a generator of H2S in biological tissues (NaHS) on intraocular pressure in normotensive, conscious albino rabbits was examined. In the eyes of a rabbit, the desired intraocular pressure is around 20 mm Hg. While in human, the desired intraocular pressure in the eye is in the range of from about 12 mm Hg to 15 mm Hg. Ranges of about 18 to 24 mm Hg in a human eye are generally considered elevated. Two baseline intraocular pressure measurements were made in nine rabbits using a pneumatonometer (Medtronic, Model 30 Classic, Jacksonville, Fla.) at −1, and 0 hour after topical application of proparacaine 0.5%. NaHS (1%, dissolved in sterile saline solution) was applied topically to one eye of each animal while the saline vehicle was administered to the other (control) eyes. Intraocular pressures were measured in both eyes at +0.5, +1, +3, and +6 hours after instillation of the drug and vehicle.

In data set [3] the test system is isolated porcine iris-ciliary body. Put plainly: Norepinephrine concentration in isolated porcine iris-ciliary body (HPLC). The note with it: NaHS 30-300 μM. In kind it is cell-based. An excerpt: The data support results obtained from neurotransmitter release studies which show a decrease in norepinephrine output.
To determine the mechanism of action of H2S donors on sympathetic neurotransmitter pools in the anterior uvea, the direct effect of NaHS was studied on catecholamine (norepinephrine, epinephrine and dopamine) concentrations in porcine iris-ciliary bodies using […] Liquid Chromatography techniques. […] Data from this study supports the previous observation that H2S donors can reduce the release of [^3H]NE from isolated porcine irides. It appears that by reducing the availability of the neurotransmitter (norepinephrine), H2S can attenuate sympathetic neurotransmission in porcine anterior uvea.

Here are results for 7 compounds from patent publication US8092838B2, “Use of hydrogen sulfide in the treatment of eye diseases” (The University of Houston System, priority 2005, dated 2012).

Like-named read-outs stand apart in the source and are kept apart here.

For the compound `C#CCC(N)C(=O)O` (stereo not shown) [PAG, propargylglycine, reference compound], the “effect on NaHS-induced inhibition of evoked [3H]NE release” value in data set [1] was “blocked the inhibitory response elicited by NaHS”. For the same compound, in the data set with isolated porcine iris (modifier 1 mM), the “shift of concentration-response curves to NaHS” value (“shift … to NaHS” for short) is “shifted concentration-response curves to NaHS to the right”.

On to `S` [NaHS, sodium hydrosulfide], for which, in data set [2] (NaHS 1% in sterile saline, topical, one eye, measured +0.5, +1, +3, +6 hours), the “effect on intraocular pressure in the treated eyes” value is listed as “time-dependent significant (p<0.001) reduction in intraocular pressure”. Further, in data set [2] (NaHS 1% topical to the other eye), the “intraocular pressure in contralateral eyes treated with only the saline vehicle” value is on record as “parallel (but smaller) decrease in intraocular pressure”. The “hyperemia and/or papillary changes” value in data set [2] (NaHS 1% topical, experimental and control eyes, all times tested) is on record as “No hyperemia and/or papillary changes were observed”. In addition, the “time of maximum reduction in intraocular pressure” value in data set [2] (NaHS 1% topical, treated eyes) amounted to 3 h. Besides, the “intraocular pressure after 6 hours” value in data set [2] (NaHS 1% topical, treated eyes, 6 hours) is on record as “remained depressed”. The “stimulation-evoked [3H]NE release” value in data set [1] (1 μM applied 8 minutes before and during S2) is “marked inhibition”. In data set [1] (NaHS 0.1-100 μM), the “electrically-evoked [3H]NE overflow” value is “concentration-dependent inhibition”. The “relaxation of tone induced by a submaximal concentration of carbachol” value in the data set with isolated porcine iris (NaHS 30 nM-100 μM) is reported as “concentration-related relaxation”. Besides, the “relative potency in eliciting relaxation of tone” value in the data set on isolated porcine iris (NaHS versus Na2S) was “more potent than Na2S”. In addition, the IC50 with isolated porcine iris (Sus scrofa, concentration range 30 nM to 300 μM) came to 7 µM. In data set [3], the “norepinephrine concentrations in the isolated porcine iris-ciliary body” value is given as “concentration-dependent decrease”.

For the compound `COc1ccc(Cl)cc1C(=O)NCCc1ccc(S(=O)(=O)NC(=O)NC2CCCCC2)cc1` [glibenclamide], the “shift … to NaHS” value in the data set on isolated porcine iris (glibenclamide 300 μM) is on record as “significant rightward shift”.

`NOCC(=O)O` [AOA, aminooxyacetic acid, reference compound]: the “effect on NaHS-induced inhibition of evoked [3H]NE release” value in data set [1] is recorded as “blocked the inhibitory response elicited by NaHS”. In addition, the “shift … to NaHS” value in the data set with isolated porcine iris (AOA 30 μM) is listed as “significant (P<0.001) rightward shifts”.

For `C[S+](CC[C@H](N)C(=O)O)C[C@H]1O[C@@H](n2cnc3c(N)ncnc32)[C@H](O)[C@@H]1O` (stereo partly drawn) [SAM, S-adenosyl-L-methionine], in the data set with isolated porcine iris, the “effect on relaxations induced by the higher concentration of NaHS” value is recorded as “attenuated” and the “shift of NaHS concentration-response curve” value is “significant leftward shift”.

For the compound `N#CC[C@H](N)C(=O)O` [BCA, β-cyano-L-alanine], the “shift … to NaHS” value in the data set on isolated porcine iris (modifier 1 mM) was “shifted concentration-response curves to NaHS to the right”.

In the case of sodium sulfide [Na2S], in data set [1], the basal tritium efflux result was “without affecting basal tritium efflux” and the “electrically-evoked [3H]NE release” value is “concentration-dependent inhibition”. The IC50 in the data set on isolated porcine iris was 70 µM.

Usually IC50 stands for the concentration that gives 50% inhibition. Read a low IC50 as inhibition by little substance.
